Results from US10457710B2, “Antimicrobial peptides, their variants and uses” (priority 2015, dated 2019).
Where a SMILES comes first, the peptide text is derived from it. [ ]: non-standard residue; d: D form.

How the values were obtained:
Type in all cases: cell-based
C. quillermondiae = assay: MIC, clinical yeast strains; design: Minimum inhibitory concentration: unit: μg/ml; conditions: C. quillermondiae clinical yeast strain 1
Procedure: (§1) Minimum inhibition concetrations (MICs) were determined against Escherichia coli (ATCC 25922), Staphylococcus aureus (ATCC 25923), Klebsiella pneumoniae (ATCC 10031) and Pseudomonas aeruginosa (ATCC 27853). Also clinical strains of E. coli, K. pneumoniae, E. cloacae, P. aeruginosa, Serratia marcescens, Proteus mirabilis, S. pneumoniae, Acinetobacter baumannii, A. johnsonii and S. aureus were used for MICs assays. Additionally, clinical strains of yeast including Candida albicans, C. glabrata, C. parapsilosis and C. quillermondiae were used. The susceptibility of these microorganisms to Chain peptides were determined using micro broth dilution assay. Colonies of the respective microorganism from Muller Hinton (MH) agar plates incubated overnight were suspended in MH broth media and final concentration of microorganism was adjusted to 5.0×10^5 cfu/ml. An aliquot of 10 μl of each Chain peptide, or gentamicin, tetracycline as reference antibiotics were added in differing concentrations along with 90 μl of bacterial suspension to 96 well polypropylene plates and incubated at 37° C. for 20 to 24 hours. Concentrations of Chain peptides and reference antibiotics ranged from 0.125 to 128 μg/ml and the MICs were recorded as the lowest concentration with no visual growth of bacteria. Similarly, antifungal MICs were tested in Potato dextrose broth.
(§2) Clinical strains of yeasts including Candida albicans, C. glabrata, C. parapsilosis and C. quillermondiae were also tested with the 12 Chain peptides. The minimum inhibitory concentration (MICs) varied between these peptides and are presented in Tables 4a, 4b, 4c and 5a, 5b, 5c. Peptides Chain 105, 201 and 308 are broad spectrum antimicrobials with MICs between 0.5-32 μg/ml against all the bacteria and yeasts tested, except Serratia marcescens and Proteus mirabilis, against which the MICs were between 64-128 μg/ml. Peptide Chain 306 has narrow spectrum activity against E. coli at 1 μg/ml and for the rest of the bacterial strains at >32 μg/ml (FIG. 10c).

Candida albicans = assay: MIC, clinical yeast strains
Procedure: as §1, §2

C. glabrata = assay: MIC, clinical yeast strains
Procedure: as §1, §2

C. parapsilosis = assay: MIC, clinical yeast strains
Procedure: as §1, §2

[1] = test system: clinical strains of S. aureus; assay: MIC, microdilution, clinical strains; conditions: 0.02% BSA, 0.2% acetic acid
Procedure: as §1, §2

[2] = test system: clinical strains of Proteus mirabilis; assay: MIC, microdilution, clinical strains; conditions: 0.02% BSA, 0.2% acetic acid
Procedure: as §1, §2

[3] = test system: clinical strains of E. cloacae; assay: MIC, microdilution, clinical strains; conditions: 0.02% BSA, 0.2% acetic acid
Procedure: as §1, §2

[4] = test system: clinical strains of P. aeruginosa; assay: MIC, microdilution, clinical strains; conditions: 0.02% BSA, 0.2% acetic acid
Procedure: as §1, §2

[5] = test system: clinical strains of S. pneumoniae; assay: MIC, microdilution, clinical strains; conditions: 0.02% BSA, 0.2% acetic acid
Procedure: as §1, §2

[6] = test system: clinical strains of E. coli; assay: MIC, microdilution, clinical strains; conditions: microdilution, Muller Hinton broth-cation adjusted, 0.02% BSA, 0.2% acetic acid
Procedure: as §1, §2

[7] = test system: clinical strains of Serratia marcescens; assay: MIC, microdilution, clinical strains; conditions: 0.02% BSA, 0.2% acetic acid
Procedure: as §1, §2

[8] = test system: clinical strains of K. pneumoniae; assay: MIC, microdilution, clinical strains; conditions: 0.02% BSA, 0.2% acetic acid
Procedure: as §1, §2

CC(C)C[C@@H](NC(=O)[C@@H](Cc1c[nH]c2ccccc12)NC(=O)[C@@H](Cc1ccccc1)NC(=O)[C@@H](Cc1c[nH]c2ccccc12)NC(=O)[C@@H](CCCCN)NC(=O)[C@@H](CCCNC(=N)N)NC(=O)[C@H](N)Cc1c[nH]c2ccccc12)C(=O)N[C@H](Cc1ccccc1)C(=O)N[C@H](CCCCN)C(=O)N[C@H](CCCCN)C(=O)N[C@H](CCCNC(=N)N)C(=O)O [Chain309D] (H-[dW][dR][dK][dW][dF][dW][dL][dF][dK][dK][dR]-OH)
Minimum inhibitory concentration (C. quillermondiae): 8 | Minimum inhibitory concentration (Candida albicans; Candida albicans clinical yeast strain 1): 32 | Minimum inhibitory concentration (Candida albicans; Candida albicans clinical yeast strain 2): 32 | Minimum inhibitory concentration (Candida albicans; Candida albicans clinical yeast strain 3): 16 | Minimum inhibitory concentration (Candida albicans; Candida albicans clinical yeast strain 4): 16 | Minimum inhibitory concentration (Candida albicans; Candida albicans clinical yeast strain 5): 32 | Minimum inhibitory concentration (C. glabrata; C. glabrata clinical yeast strain 1): 32 | Minimum inhibitory concentration (C. glabrata; C. glabrata clinical yeast strain 2): 64 | Minimum inhibitory concentration (C. glabrata; C. glabrata clinical yeast strain 3): 4 | Minimum inhibitory concentration (C. glabrata; C. glabrata clinical yeast strain 4): 128 | Minimum inhibitory concentration (C. parapsilosis; C. parapsilosis clinical yeast strain 1): 64 | Minimum inhibitory concentration (C. parapsilosis; C. parapsilosis clinical yeast strain 2): 64 | Minimum inhibitory concentration (C. parapsilosis; C. parapsilosis clinical yeast strain 3): 32 | Minimum inhibitory concentration (C. parapsilosis; C. parapsilosis clinical yeast strain 4): 16 | Minimum inhibitory concentration ([1]; Staphylococcus aureus strain 1, Muller Hinton broth-cation adjusted): 8 | Minimum inhibitory concentration ([1]; Staphylococcus aureus strain 2, Muller Hinton broth-cation adjusted): 16 | Minimum inhibitory concentration ([1]; Staphylococcus aureus strain 3, Muller Hinton broth-cation adjusted): 8 | Minimum inhibitory concentration ([1]; Staphylococcus aureus strain 4, Muller Hinton broth-cation adjusted): 8 | Minimum inhibitory concentration ([1]; Staphylococcus aureus strain 5, Muller Hinton broth-cation adjusted): 8 | Minimum inhibitory concentration ([2]; Proteus mirabilis strain 1, Muller Hinton broth-cation adjusted): >128 | Minimum inhibitory concentration ([2]; Proteus mirabilis strain 2, Muller Hinton broth-cation adjusted): >128 | Minimum inhibitory concentration ([2]; Proteus mirabilis strain 3, Muller Hinton broth-cation adjusted): >128 | Minimum inhibitory concentration ([2]; Proteus mirabilis strain 4, Muller Hinton broth-cation adjusted): >128 | Minimum inhibitory concentration ([2]; Proteus mirabilis strain 5, Muller Hinton broth-cation adjusted): >128 | Minimum inhibitory concentration ([3]; Enterobacter cloacae strain 1, Muller Hinton broth-cation adjusted): >128 | Minimum inhibitory concentration ([3]; Enterobacter cloacae strain 2, Muller Hinton broth-cation adjusted): 128 | Minimum inhibitory concentration ([3]; Enterobacter cloacae strain 3, Muller Hinton broth-cation adjusted): 64 | Minimum inhibitory concentration ([3]; Enterobacter cloacae strain 4, Muller Hinton broth-cation adjusted): 64 | Minimum inhibitory concentration ([3]; Enterobacter cloacae strain 5, Muller Hinton broth-cation adjusted): 32 | Minimum inhibitory concentration ([4]; Pseudomonas aeruginosa strain 1, Muller Hinton broth-cation adjusted): 16 | Minimum inhibitory concentration ([4]; Pseudomonas aeruginosa strain 2, Muller Hinton broth-cation adjusted): 32 | Minimum inhibitory concentration ([4]; Pseudomonas aeruginosa strain 3, Muller Hinton broth-cation adjusted): 16 | Minimum inhibitory concentration ([4]; Pseudomonas aeruginosa strain 4, Muller Hinton broth-cation adjusted): 32 | Minimum inhibitory concentration ([4]; Pseudomonas aeruginosa strain 5, Muller Hinton broth-cation adjusted): 8 | Minimum inhibitory concentration ([5]; Streptococcus pneumoniae strain 1, Muller Hinton broth-cation adjusted): 64 | Minimum inhibitory concentration ([5]; Streptococcus pneumoniae strain 2, Muller Hinton broth-cation adjusted): 64 | Minimum inhibitory concentration ([5]; Streptococcus pneumoniae strain 3, Muller Hinton broth-cation adjusted): 64 | Minimum inhibitory concentration ([5]; Streptococcus pneumoniae strain 4, Muller Hinton broth-cation adjusted): 64 | Minimum inhibitory concentration ([5]; Streptococcus pneumoniae strain 5, Muller Hinton broth-cation adjusted): 64 | Minimum inhibitory concentration ([6]; Escherichia coli strain 1): 0.5 | Minimum inhibitory concentration ([6]; Escherichia coli strain 2): 32 | Minimum inhibitory concentration ([6]; Escherichia coli strain 3): 16 | Minimum inhibitory concentration ([6]; Escherichia coli strain 4): 32 | Minimum inhibitory concentration ([6]; Escherichia coli strain 5): 16 | Minimum inhibitory concentration ([7]; Serratia marcescens strain 1, Muller Hinton broth-cation adjusted): >128 | Minimum inhibitory concentration ([7]; Serratia marcescens strain 2, Muller Hinton broth-cation adjusted): >128 | Minimum inhibitory concentration ([7]; Serratia marcescens strain 3, Muller Hinton broth-cation adjusted): >128 | Minimum inhibitory concentration ([7]; Serratia marcescens strain 4, Muller Hinton broth-cation adjusted): >128 | Minimum inhibitory concentration ([7]; Serratia marcescens strain 5, Muller Hinton broth-cation adjusted): >128 | Minimum inhibitory concentration ([8]; Klebsiella pneumoniae strain 1, Muller Hinton broth-cation adjusted): 128 | Minimum inhibitory concentration ([8]; Klebsiella pneumoniae strain 2, Muller Hinton broth-cation adjusted): 32 | Minimum inhibitory concentration ([8]; Klebsiella pneumoniae strain 3, Muller Hinton broth-cation adjusted): >128 | Minimum inhibitory concentration ([8]; Klebsiella pneumoniae strain 4, Muller Hinton broth-cation adjusted): 32 | Minimum inhibitory concentration ([8]; Klebsiella pneumoniae strain 5, Muller Hinton broth-cation adjusted): 128
